What was measured:
[1] = system: VEGF; test: VEGF concentration in culture medium of human dermal papilla cells, ELISA; assay type: cell-based; conditions: Human dermal papilla cell, 24 hours, DMSO negative control, read-out: increase in VEGF concentration
[2] = system: cAMP; test: cAMP concentration in human dermal papilla cells, ELISA; assay type: cell-based; conditions: Human dermal papilla cell, 24 hours, DMSO negative control, read-out: increase in cAMP concentration
[3] = system: LEF; test: LEF mRNA expression in human dermal papilla cells, RT-PCR; assay type: cell-based; conditions: Human dermal papilla cell, 24 hours, read-out: increase in mRNA expression of LEF
[4] = system: IGF-1; test: IGF-1 concentration in culture medium of human dermal papilla cells, ELISA; assay type: cell-based; conditions: Human dermal papilla cell, 24 hours, DMSO negative control, read-out: increase in IGF-1 concentration
[5] = system: IGF; test: IGF-1 mRNA expression in human dermal papilla cells, RT-PCR; assay type: cell-based; conditions: Human dermal papilla cell, 24 hours, read-out: increase in mRNA expression of IGF
[6] = system: cycD; test: Cyclin D mRNA expression in human dermal papilla cells, RT-PCR; assay type: cell-based; conditions: Human dermal papilla cell, 24 hours, read-out: increase in mRNA expression of cycD
[7] = system: human dermal papilla cells; test: Cell proliferation of human dermal papilla cells, MTT assay; conditions: 24 h, read-out: proliferation rate increase
[8] = system: VEGF; test: VEGF mRNA expression in human dermal papilla cells, RT-PCR; assay type: cell-based; conditions: Human dermal papilla cell, 24 hours, read-out: increase in mRNA expression of VEGF

Compound: COc1ccc2ccccc2c1 [Yarayara, 2-methoxynaphthalene]
- activation at 20 µM [1]: 30%
- activation at 20 µM [2]: 47%
- activation at 20 µM [3]: 340%
- activation at 20 µM [4]: 22%
- activation at 20 µM [5]: 270%
- activation at 20 µM [6]: 262%
- activation at 10 µM [7]: 10.6%
- activation at 20 µM [7]: 37%
- activation at 50 µM [7]: 28%
- activation at 20 µM [8]: 274%
